The values that follow come from ChEMBL document CHEMBL4425188, “Synthesis and immunostimulatory activity of substituted TLR7 agonists” (Bioorg Med Chem Lett, 2016).

In assay [1] the target is T1, Toll-like receptor 7 (Homo sapiens) (UniProt Q9NYK1).
T1 sequence (whole entry): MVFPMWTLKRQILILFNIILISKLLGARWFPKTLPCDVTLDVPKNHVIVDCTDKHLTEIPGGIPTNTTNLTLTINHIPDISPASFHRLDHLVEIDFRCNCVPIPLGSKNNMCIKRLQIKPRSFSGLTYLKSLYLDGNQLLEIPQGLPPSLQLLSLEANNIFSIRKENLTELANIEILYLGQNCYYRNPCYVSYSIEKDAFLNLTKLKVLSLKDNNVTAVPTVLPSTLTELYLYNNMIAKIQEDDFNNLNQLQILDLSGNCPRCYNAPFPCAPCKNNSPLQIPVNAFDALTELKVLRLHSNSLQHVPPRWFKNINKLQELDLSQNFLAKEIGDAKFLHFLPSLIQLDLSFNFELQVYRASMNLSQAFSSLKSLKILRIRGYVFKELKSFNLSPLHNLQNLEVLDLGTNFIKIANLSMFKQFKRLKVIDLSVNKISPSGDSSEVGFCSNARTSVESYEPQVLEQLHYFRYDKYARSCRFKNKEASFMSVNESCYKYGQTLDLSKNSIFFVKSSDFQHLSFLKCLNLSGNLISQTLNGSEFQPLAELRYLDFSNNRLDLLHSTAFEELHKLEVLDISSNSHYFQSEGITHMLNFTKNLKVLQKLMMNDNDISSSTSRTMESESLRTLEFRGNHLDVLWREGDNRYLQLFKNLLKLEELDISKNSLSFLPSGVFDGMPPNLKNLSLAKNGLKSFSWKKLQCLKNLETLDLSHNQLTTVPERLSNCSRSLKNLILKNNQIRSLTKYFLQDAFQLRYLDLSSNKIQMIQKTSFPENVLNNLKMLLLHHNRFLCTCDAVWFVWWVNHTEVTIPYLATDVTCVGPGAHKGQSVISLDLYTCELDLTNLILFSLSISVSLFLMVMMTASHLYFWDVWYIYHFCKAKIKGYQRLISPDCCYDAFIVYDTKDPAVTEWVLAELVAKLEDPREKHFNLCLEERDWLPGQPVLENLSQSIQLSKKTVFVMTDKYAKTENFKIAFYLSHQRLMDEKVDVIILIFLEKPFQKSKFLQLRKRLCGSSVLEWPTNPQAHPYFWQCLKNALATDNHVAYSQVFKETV
In words: Agonist activity at human TLR7 expressed in HEK293 cells at 1 ng/ml by QUANTI-blue SEAP reporter gene assay. The class given is cell-based.

The target in assay [2] is T2, Toll-like receptor 8 (Homo sapiens) (UniProt Q9NR97).
T2 sequence (whole entry): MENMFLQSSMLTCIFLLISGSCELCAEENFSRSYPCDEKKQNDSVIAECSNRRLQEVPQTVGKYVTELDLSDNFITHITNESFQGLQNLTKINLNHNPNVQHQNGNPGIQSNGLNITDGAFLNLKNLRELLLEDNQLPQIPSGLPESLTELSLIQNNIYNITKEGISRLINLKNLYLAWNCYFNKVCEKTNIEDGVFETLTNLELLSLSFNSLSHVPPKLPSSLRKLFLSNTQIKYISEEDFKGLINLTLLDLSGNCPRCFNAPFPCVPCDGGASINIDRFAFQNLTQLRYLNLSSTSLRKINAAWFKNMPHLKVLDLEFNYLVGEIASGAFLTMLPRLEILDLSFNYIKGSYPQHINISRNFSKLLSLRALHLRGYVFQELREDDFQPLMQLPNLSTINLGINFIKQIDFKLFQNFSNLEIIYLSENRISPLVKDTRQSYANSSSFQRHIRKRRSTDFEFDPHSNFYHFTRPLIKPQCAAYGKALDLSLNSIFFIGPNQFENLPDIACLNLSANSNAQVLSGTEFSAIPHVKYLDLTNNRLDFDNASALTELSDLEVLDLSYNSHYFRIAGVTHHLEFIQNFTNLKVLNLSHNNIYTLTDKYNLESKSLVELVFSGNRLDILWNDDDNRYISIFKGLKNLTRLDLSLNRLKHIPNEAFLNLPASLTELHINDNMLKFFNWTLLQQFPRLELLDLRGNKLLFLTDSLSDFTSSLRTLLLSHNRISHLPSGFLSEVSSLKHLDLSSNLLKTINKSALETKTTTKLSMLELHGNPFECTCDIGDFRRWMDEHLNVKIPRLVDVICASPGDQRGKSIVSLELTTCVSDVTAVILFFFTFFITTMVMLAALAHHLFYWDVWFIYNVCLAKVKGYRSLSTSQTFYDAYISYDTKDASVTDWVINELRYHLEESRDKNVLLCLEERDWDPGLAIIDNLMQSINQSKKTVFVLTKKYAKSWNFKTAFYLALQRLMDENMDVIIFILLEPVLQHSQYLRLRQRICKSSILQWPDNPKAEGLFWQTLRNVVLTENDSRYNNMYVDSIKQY
Kind of assay: Agonist activity at human TLR8 expressed in HEK293 cells at 5 to 1000 ng/ml by QUANTI-blue SEAP reporter gene assay. The class given is cell-based. For orientation: In a reporter assay the amount or activity of a reporter protein is the signal.

Assay [3] deals with T3, Toll-like receptor 9 (Homo sapiens) (UniProt Q9NR96).
T3 sequence (whole entry): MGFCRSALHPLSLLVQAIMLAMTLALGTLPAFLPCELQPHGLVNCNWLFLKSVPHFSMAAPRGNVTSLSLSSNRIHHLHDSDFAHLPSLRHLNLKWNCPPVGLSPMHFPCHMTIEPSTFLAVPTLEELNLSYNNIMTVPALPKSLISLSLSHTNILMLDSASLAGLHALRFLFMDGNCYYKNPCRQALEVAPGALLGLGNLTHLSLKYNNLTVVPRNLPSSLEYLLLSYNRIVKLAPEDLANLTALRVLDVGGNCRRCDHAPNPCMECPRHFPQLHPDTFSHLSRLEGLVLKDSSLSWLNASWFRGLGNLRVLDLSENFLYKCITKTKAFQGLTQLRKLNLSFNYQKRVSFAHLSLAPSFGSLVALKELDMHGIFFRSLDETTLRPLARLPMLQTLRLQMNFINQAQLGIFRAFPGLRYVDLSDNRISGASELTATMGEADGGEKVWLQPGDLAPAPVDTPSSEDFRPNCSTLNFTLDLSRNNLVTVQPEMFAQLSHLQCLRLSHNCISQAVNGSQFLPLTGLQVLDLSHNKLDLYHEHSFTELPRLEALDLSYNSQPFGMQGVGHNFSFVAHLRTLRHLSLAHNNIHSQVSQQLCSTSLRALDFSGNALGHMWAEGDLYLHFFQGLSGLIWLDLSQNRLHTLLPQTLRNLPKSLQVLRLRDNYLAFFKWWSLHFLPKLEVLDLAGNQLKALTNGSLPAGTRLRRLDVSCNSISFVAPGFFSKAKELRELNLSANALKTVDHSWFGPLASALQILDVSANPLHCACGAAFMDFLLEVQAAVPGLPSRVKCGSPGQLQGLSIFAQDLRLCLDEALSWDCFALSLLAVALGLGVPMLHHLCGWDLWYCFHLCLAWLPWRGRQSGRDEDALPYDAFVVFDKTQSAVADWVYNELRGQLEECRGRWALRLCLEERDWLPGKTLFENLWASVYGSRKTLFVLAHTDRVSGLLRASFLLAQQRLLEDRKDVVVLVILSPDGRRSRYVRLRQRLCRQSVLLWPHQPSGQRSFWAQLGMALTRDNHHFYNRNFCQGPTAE
In words: Agonist activity at human TLR9 expressed in HEK293 cells at 5 to 1000 ng/ml by QUANTI-blue SEAP reporter gene assay. Type of assay: cell-based.

A further assay concerns HEK293. In words: Induction of SEAP reporter gene expression in TLR-deficient HEK293 cells at 5 to 1000 ng/ml. Type of assay: functional, cell-based. Conditions: Homo sapiens.
Assay [4] concerns the target T1, Toll-like receptor 7 (Homo sapiens). Kind of assay: Agonist activity at human TLR7 expressed in HEK293 cells at <= 50 ng/ml by QUANTI-blue SEAP reporter gene assay. The class given is cell-based.
The next assay deals with T-cell. Kind of assay: Immunostimulatory activity in CFSE-labeled human T cells assessed as TLR7 agonist-induced cell proliferation at 2 to 200 nM after 6 days by FACS analysis. Type of assay: functional, cell-based. In general terms: Flow cytometry measures light scatter and fluorescence of single cells or particles in a stream.
The next assay relates to B cell. In words: Immunostimulatory activity in CFSE-labeled human B cells assessed as TLR7 agonist-induced cell proliferation after 6 days by FACS analysis. The class given is functional, cell-based. Conditions: 144 h.
For a further assay, the species on record is Homo sapiens. In words: Immunostimulatory activity in CFSE-labeled human NK cells assessed as TLR7 agonist-induced cell proliferation at 2 to 200 nM after 6 days by FACS analysis. Type of assay: functional.

pEC50: −log10 of the molar value. The source made the active and inactive calls. No cut-off for these calls is given here.

For `CCCCOc1nc(N)c2c(n1)n(Cc1ccccc1)c(=O)n2Cc1ccccc1`, the outcome (in assay [1]; in assay [2]; in assay [3]; in the assay with HEK293) was inactive.

Consider `CCCCOc1nc(N)c2nc(SCCCCSc3nc4c(N)nc(OCCCC)nc4n3Cc3ccccc3)n(Cc3ccccc3)c2n1`, for which the outcome (in assay [1]; in assay [2]; in assay [3]; in the assay on HEK293) was inactive.

The term pEC50 denotes the negative decadic logarithm of the EC50, by convention in mol/L. Regarding `CCCCOc1nc(N)c2nc(O)n(Cc3ccc(C(=O)NCCOCCOCCN)cc3)c2n1`, in assay [4], the outcome was Active. Further, the result (in assay [2]; in assay [3]; in the assay with T-cell; in the assay filed under Homo sapiens; in the assay on HEK293) was inactive. Besides, the pEC50 in the assay on B cell was 7.59.

Consider `CCCCOc1nc(N)c2nc(O)n(Cc3ccc(C(=O)NCCN)cc3)c2n1`, for which, in assay [4], the result was Active. The result (in assay [2]; in assay [3]; in the assay with T-cell; in the assay listed under Homo sapiens; in the assay with HEK293) was inactive. Moreover, the pEC50 in the assay on B cell is 7.28.

For `CCCCOc1nc(N)c2nc(O)n(Cc3ccc(C(=O)NCCOCCOCCNC(=O)CCC(=O)N4Cc5ccccc5C#Cc5ccccc54)cc3)c2n1`, the result in assay [4] was Active. Besides, the result (in assay [2]; in assay [3]; with HEK293) was inactive.

For `CCCCOc1nc(N)c2nc(SCc3ccccc3)n(Cc3ccccc3)c2n1`, the result (in assay [1]; in assay [2]; in assay [3]; in the assay with HEK293) was inactive.

With `CCCCOc1nc(N)c2nc(SCC(=O)OC(C)(C)C)n(Cc3ccccc3)c2n1`, the outcome (in assay [1]; in assay [2]; in assay [3]; with HEK293) was inactive.

Regarding `CCCCOc1nc(N)c2nc(O)n(Cc3ccc(C#CCN)cc3)c2n1`, the outcome in assay [4] was Active. Besides, the outcome (in assay [2]; in assay [3]; in the assay with HEK293) was inactive.

As to `CCCCOc1nc(N)c2nc(OCc3ccccc3)n(Cc3ccccc3)c2n1`, the outcome (in assay [1]; in assay [2]; in assay [3]; in the assay on HEK293) was inactive.

As for `CCCCOc1nc(N)c2nc(O)n(Cc3ccc(I)cc3)c2n1`, the outcome in assay [4] was Active. In addition, the outcome (in assay [2]; in assay [3]; in the assay on T-cell; in the assay listed under Homo sapiens; with HEK293) was inactive. Further, the pEC50 in the assay with B cell was 6.90.

Regarding `CCCCOc1nc(N)c2nc(O)n(Cc3ccc(CCCN)cc3)c2n1`, in assay [4], the result was Active. The result (in assay [2]; in assay [3]; in the assay with HEK293) was inactive.

For the compound `CCCCOc1nc(N)c2nc(O)n(Cc3ccc(C#CCO)cc3)c2n1`, in assay [4], the result was Active. The result (in assay [2]; in assay [3]; in the assay with T-cell; in the assay listed under Homo sapiens; with HEK293) was inactive. In addition, the negative logarithm of the EC50 (pEC50) in the assay on B cell was 7.23.

With `CCCCOc1nc(N)c2nc(NCC)n(Cc3ccccc3)c2n1`, the result (in assay [2]; in assay [3]; in the assay on HEK293) was inactive.

With `CCCCOc1nc(N)c2nc(O)n(Cc3ccc(C(=O)O)cc3)c2n1`, the result in assay [4] was Active. Moreover, the result (in assay [2]; in assay [3]; with T-cell; in the assay filed under Homo sapiens; with HEK293) was inactive. In addition, in the assay on B cell, the pEC50 is 6.32.

Take `CCCCOc1nc(N)c2nc(S)n(Cc3ccccc3)c2n1`: the outcome in assay [4] was Active. The result (in assay [2]; in assay [3]; with T-cell; in the assay listed under Homo sapiens; with HEK293) was inactive. Also, in the assay with B cell, the pEC50 was 5.57.
